Assay results from patent US20250320213A1, “Nitrogen-Containing Heterocyclic Compounds” (Pfizer Inc., priority 2024, published 2025).
Like-named read-outs stand apart in the source and are kept apart here.

Columns and labels:
[1] = tested on: CCL17 secretion in peripheral human whole blood; experiment: Human Whole Blood (HWB) CCL17 TR-FRET Assay (IL-13 stimulated CCL17 secretion); format: cell-based
In short: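 IC50 comes from serum CCL17 measured by a TR-FRET sandwich assay (16 h at room temperature, 665/615 nm ratio). Beforehand, blood in sodium heparin was exposed to an 11-point, 3-fold compound series for 2 h at 37°C and then to 10 ng/mL IL-13 for 48 h.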

STAT6 = target: T1, STAT6 (Homo sapiens, UniProt P42226); experiment: STAT6 Reporter Luciferase Assay (IL-13 stimulated HaCaT keratinocyte NanoLuc reporter cells); format: cell-based; conditions: read-out: Reporter EC50
T1 construct: stably transfected HaCaT keratinocyte cell line, which expresses NanoLuc luciferase reporter gene under the transcriptional control of the STAT6 responsive promoter; endogenous in cells; host or cells: HaCaT keratinocyte reporter cell line (stably transfected with a NanoLuc reporter)
T1 sequence (P42226 1-847): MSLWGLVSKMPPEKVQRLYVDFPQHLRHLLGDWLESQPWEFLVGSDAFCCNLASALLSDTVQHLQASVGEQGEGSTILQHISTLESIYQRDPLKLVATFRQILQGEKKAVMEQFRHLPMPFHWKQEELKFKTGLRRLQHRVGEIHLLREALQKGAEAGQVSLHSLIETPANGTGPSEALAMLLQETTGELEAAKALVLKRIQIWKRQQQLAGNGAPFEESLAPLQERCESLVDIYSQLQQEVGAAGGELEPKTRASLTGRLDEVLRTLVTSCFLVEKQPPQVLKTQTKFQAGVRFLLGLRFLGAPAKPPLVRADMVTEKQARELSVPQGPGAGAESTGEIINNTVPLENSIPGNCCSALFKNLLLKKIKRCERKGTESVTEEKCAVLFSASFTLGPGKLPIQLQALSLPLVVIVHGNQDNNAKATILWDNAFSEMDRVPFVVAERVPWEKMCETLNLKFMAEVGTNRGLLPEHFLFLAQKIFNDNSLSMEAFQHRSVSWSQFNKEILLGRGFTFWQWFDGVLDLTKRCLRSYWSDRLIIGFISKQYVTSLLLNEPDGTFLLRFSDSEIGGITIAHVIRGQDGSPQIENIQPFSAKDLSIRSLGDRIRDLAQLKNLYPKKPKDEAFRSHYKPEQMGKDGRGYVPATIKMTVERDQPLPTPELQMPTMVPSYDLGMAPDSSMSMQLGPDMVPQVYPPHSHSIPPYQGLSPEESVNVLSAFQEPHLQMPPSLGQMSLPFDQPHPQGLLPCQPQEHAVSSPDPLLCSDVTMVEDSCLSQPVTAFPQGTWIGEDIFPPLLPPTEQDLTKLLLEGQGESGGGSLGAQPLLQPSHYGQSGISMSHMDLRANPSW
In short: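 Stably transfected HaCaT cells carrying NanoLuc under the STAT6-responsive IL-13Ra2 promoter were pre-treated with compound (11-point, 4-fold series, duplicate) for 2 h at 37 °C, then stimulated with 0.12 nM IL-13 for 4 h. Nano-Glo luminescence was read after 15 min.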

[2] = Homo sapiens, 48 h, human whole blood, 10 ng/mL IL13, 48 hours
[3] = IL-13 stimulated HaCaT STAT6 NanoLuc reporter cells
[4] = Homo sapiens, 48 h, inhibition of CCL17 secretion in human whole blood, 10 ng/mL IL13, 48 hours
[5] = STAT6 NanoLuc luciferase reporter, IL-13 stimulated HaCaT keratinocyte cells

Row | SMILES | IC50 [1, 2] | EC50 (STAT6; [3]) | IC50 [1, 4] | EC50 (STAT6; [5]) | also measured
1 | CCn1nc(C(=O)NCc2ccc(NC(=O)N(C)C)cc2)c2c1C1(CC1)CN(c1ccc(C(=O)N(C)C)cn1)C2 [Example 555, 5′-(5-(dimethylcarbamoyl)pyridin-2-yl)-N-(4-(3,3-dimethylureido)benzyl)-1′-ethyl-1′,4′,5′,6′-tetrahydrospiro[cyclopropane-1,7′-pyrazolo[4,3-c]pyridine]-3′-carboxamide] | 52 nM | 5 nM |  |  | 
2 | CC(C)n1nc(C(=O)NCc2ccc(NC(=O)N3CCN(C)CC3)cc2)c2c1[C@@H](C)CN(c1ccc(C(=O)N(C)C)cc1)C2 [Example 132, (S)-5-(4-(Dimethylcarbamoyl)phenyl)-1-isopropyl-7-methyl-N-(4-(4-methylpiperazine-1-carboxamido)benzyl)-4,5,6,7-tetrahydro-1H-pyrazolo[4,3-c]pyridine-3-carboxamide] |  |  | 3.6 nM | 0.2 nM | 
3 | CCc1nc(C(=O)NCc2ccc(NC(=O)N(C)C)cc2)c2n1C(C)CN(c1ccc(C(=O)N(C)C)cn1)C2 (racemic) [Example 205, rac-(R)-7-(5-(dimethylcarbamoyl)pyridin-2-yl)-N-(4-(3,3-dimethylureido)benzyl)-3-ethyl-5-methyl-5,6,7,8-tetrahydroimidazo[1,5-a]pyrazine-1-carboxamide] |  | 5 nM |  |  | IC50 ([1]; Homo sapiens, 48 h, human whole blood, IL-13 stimulated): 19 nM
4 | CNC1CN(C(=O)Nc2ccc(CNC(=O)c3nn(C(C)C)c4c3CN(c3ccc(C(=O)N(C)C)cc3)C[C@@H]4C)cc2)C1 [Example 619, (S)-5-(4-(dimethylcarbamoyl)phenyl)-1-isopropyl-7-methyl-N-(4-(3-(methylamino)azetidine-1-carboxamido)benzyl)-4,5,6,7-tetrahydro-1H-pyrazolo[4,3-c]pyridine-3-carboxamide] | 19 nM | 3 nM |  |  | 
5 | CC(C)n1nc(C(=O)NCc2ccc(NC(=O)N3CC4(CN(C)C4)C3)c(F)c2)c2c1[C@@H](C)CN(c1ccc(C(=O)N(C)C)cn1)C2 [Example 604, (S)-5-(5-(dimethylcarbamoyl)pyridin-2-yl)-N-(3-fluoro-4-(6-methyl-2,6-diazaspiro[3.3]heptane-2-carboxamido)benzyl)-1-isopropyl-7-methyl-4,5,6,7-tetrahydro-1H-pyrazolo[4,3-c]pyridine-3-carboxamide] | 29 nM | 4 nM |  |  | 
6 | CC1CN(c2ccc(-c3nccn3C)cn2)Cc2c(C(=O)NCc3ccc(NC(=O)N(C)C)cc3)nn(C)c21 (single isomer, unassigned) [Example 203, rel-(R or S)-N-(4-(3,3-dimethylureido)benzyl)-1,7-dimethyl-5-(5-(1-methyl-1H-imidazol-2-yl)pyridin-2-yl)-4,5,6,7-tetrahydro-1H-pyrazolo[4,3-c]pyridine-3-carboxamide] |  | 1 nM |  |  | IC50 ([1]; human whole blood, IL-13 stimulated, 48 hours): 16 nM
7 | CC(C)n1nc(C(=O)NCc2ccc(NC(=O)NCC3CC3)cc2)c2c1CCN(c1ccc(C(=O)N(C)C)cn1)C2 [Example 154, N-(4-(3-(cyclopropylmethyl)ureido)benzyl)-5-(5-(dimethylcarbamoyl)pyridin-2-yl)-1-isopropyl-4,5,6,7-tetrahydro-1H-pyrazolo[4,3-c]pyridine-3-carboxamide] |  |  | 449 nM | 8 nM | 
8 | CC(C)n1nc(C(=O)NCc2ccc(NC(=O)N3CC(C)(N(C)C)C3)cc2)c2c1CCN(c1ccc(C(=O)N(C)C)cn1)C2 [Example 150, N-(4-(3-(dimethylamino)-3-methylazetidine-1-carboxamido)benzyl)-5-(5-(dimethylcarbamoyl)pyridin-2-yl)-1-isopropyl-4,5,6,7-tetrahydro-1H-pyrazolo[4,3-c]pyridine-3-carboxamide] |  |  | 70 nM | 18 nM | 
9 | CCn1nc(C(=O)NCc2ccc(NC(=O)N(C)C)cc2)c2c1[C@@H](C)CN(c1ccc(N3CCCC3=O)cn1)C2 [Example 129, (S)-N-(4-(3,3-dimethylureido)benzyl)-1-ethyl-7-methyl-5-(5-(2-oxopyrrolidin-1-yl)pyridin-2-yl)-4,5,6,7-tetrahydro-1H-pyrazolo[4,3-c]pyridine-3-carboxamide] |  |  | 9 nM | 1 nM | 
